# Counter-ions that a name gives are not always drawn. Calls of active or inactive are those of the source.
# Experiments:
# [1] = biological target: Dual specificity protein kinase CLK1 (Homo sapiens, UniProt P49759); assay: inhibition of human CLK1 activity – biochemical, cherry-picked samples, selectivity assay for Dyrk1A inhibitor project, dose response (AID 588811)
# [2] = biological target: Voltage-gated inwardly rectifying potassium channel KCNH2 (Homo sapiens, UniProt Q12809); conditions: Potency;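 also: confirmatory quantitative high-throughput screen measuring inhibition of hERG channel activity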
# [3] = microbe, parasite or virus in culture; assay type: functional; conditions: Mycobacterium tuberculosis
# HeLa = assay: ATP-based viability loss in HeLa cells – cell-based, CellTiter-Glo luminescence, cherry-pick samples, cytotoxicity control for MITF activator project, dose response (AID 540259); assay type: functional; conditions: Homo sapiens
# [4] = biological target: SWI/SNF-related matrix-associated actin-dependent regulator of chromatin subfamily A member 2 (Homo sapiens, UniProt P51531); assay: Luminescence-based cell-based high throughput dose response assay to identify activators of the function of SWI/SNF related, matrix associated, actin dependent regulator of chromatin, subfamily a, member 2 (SMARCA2, BRM).; assay type: functional
# [5] = Counterscreen for activators of the function of SWI/SNF related, matrix associated, actin dependent regulator of chromatin, subfamily a, member 2 (SMARCA2, BRM): Luminescence-based cell-based high throughput dose response assay to identify non-selective compounds using the VP16 reporter assay.; assay type: functional
# [6] = biological target: T1, Latent membrane protein 1 (Human herpesvirus 4 (strain B95-8), UniProt P03230); assay: LMP1 TES1 pathway selectivity over dsRED control – imaging, HEK293T, dual-color eGFP/dsRED, cherry-picks, selectivity assay for LMP1 NF-kB inhibitor project, dose response (AID 588398); assay type: functional, cell-based
# T1 sequence (P03230 whole entry): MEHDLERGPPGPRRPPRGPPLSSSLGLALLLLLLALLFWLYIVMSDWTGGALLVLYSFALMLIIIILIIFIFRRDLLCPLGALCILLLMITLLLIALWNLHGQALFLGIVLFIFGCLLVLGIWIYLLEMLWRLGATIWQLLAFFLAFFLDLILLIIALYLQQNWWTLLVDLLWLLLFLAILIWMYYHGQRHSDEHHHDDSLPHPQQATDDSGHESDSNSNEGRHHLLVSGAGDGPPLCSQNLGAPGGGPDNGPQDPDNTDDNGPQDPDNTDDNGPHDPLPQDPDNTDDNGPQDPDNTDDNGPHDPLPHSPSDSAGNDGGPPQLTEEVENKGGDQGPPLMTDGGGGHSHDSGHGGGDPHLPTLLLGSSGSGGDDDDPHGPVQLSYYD
# [7] = viability loss of HMLE_sh_eGFP cells – cell-based, luminescence, counter-screen for HMLE_sh_ECad selective toxicity project, dose response (AID 463074); assay type: functional, Homo sapiens;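 also: HMLE human mammary epithelial cells expressing control shRNA against eGFP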
# [8] = Luminescence Cell-Based Dose Retest to Confirm Inhibitors of Cancer Stem Cells. [Related pubchem assays (depositor defined):AID2717, AID2721]; assay type: functional; conditions: Homo sapiens
# Phospholipase D1 = biological target: T2, Phospholipase D1 (Homo sapiens, UniProt Q13393); assay: cellular phospholipase D1 inhibition IC50 – cell-based, dose response (AID 602151); assay type: functional;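 also: cellular PLD1 assay in Calu-1 cells stimulated with PMA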
# T2 sequence (Q13393 whole entry): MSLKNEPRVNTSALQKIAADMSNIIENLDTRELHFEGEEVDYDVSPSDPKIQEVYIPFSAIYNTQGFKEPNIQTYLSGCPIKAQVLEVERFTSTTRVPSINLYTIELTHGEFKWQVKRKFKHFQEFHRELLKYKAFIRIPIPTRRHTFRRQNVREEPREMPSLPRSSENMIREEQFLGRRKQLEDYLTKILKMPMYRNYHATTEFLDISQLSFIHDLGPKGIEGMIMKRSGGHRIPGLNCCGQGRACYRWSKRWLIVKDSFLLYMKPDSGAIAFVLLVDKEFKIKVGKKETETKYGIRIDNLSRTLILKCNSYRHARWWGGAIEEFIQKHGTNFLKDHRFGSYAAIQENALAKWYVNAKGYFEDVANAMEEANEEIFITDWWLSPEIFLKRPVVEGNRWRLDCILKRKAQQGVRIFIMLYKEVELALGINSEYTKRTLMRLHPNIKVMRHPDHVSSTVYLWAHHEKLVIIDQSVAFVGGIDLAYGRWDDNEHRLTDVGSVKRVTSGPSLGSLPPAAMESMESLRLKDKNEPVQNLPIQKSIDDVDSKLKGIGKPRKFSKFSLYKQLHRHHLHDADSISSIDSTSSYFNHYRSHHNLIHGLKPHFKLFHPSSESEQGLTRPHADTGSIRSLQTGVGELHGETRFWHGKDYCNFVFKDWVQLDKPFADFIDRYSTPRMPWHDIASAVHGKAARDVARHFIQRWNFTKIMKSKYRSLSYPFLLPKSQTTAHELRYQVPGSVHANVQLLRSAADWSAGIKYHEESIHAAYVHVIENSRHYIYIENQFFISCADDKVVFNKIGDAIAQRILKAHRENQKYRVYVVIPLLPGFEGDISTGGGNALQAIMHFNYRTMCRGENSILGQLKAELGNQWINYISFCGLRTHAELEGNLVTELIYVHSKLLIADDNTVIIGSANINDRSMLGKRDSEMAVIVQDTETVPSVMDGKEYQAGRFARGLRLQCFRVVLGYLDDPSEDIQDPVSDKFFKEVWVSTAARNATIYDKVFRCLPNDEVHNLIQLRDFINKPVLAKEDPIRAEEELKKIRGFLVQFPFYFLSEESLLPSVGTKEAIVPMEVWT
# Phospholipase D2 = Phospholipase D2 (Homo sapiens, UniProt O14939); assay: cellular phospholipase D2 inhibition IC50 – cell-based, dose response (AID 602147); assay type: functional;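 also: cellular assay in HEK293 cells overexpressing GFP-tagged PLD2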
# Candida albicans [9] = assay: Candida growth reduction in fluconazole presence – CaCi-2 strain, Alamar Blue, dry powder, set 2, antifungal resistance reversal project, dose response (AID 488930); assay type: functional, organism-based
# Candida albicans [10] = assay: C. albicans growth inhibition with fluconazole – CaCi-2 strain, Alamar Blue, dry powder, set 4, dose response (AID 488943); assay type: functional, organism-based
# Candida albicans [11] = assay: resistant Candida growth with fluconazole co-treatment – CaCi-8 strain, Alamar Blue, dry powder, set 2, dose response (AID 488909); assay type: functional, organism-based
# Candida albicans [12] = assay: fluconazole-resistant Candida strain growth inhibitors – CaCi-8 strain, dry powder, set 4, dose response (AID 488950); assay type: functional, organism-based
# [13] = biological target: Peroxisome proliferator-activated receptor gamma/Nuclear receptor coactivator 1 (Homo sapiens, UniProt P37231); assay: TR-FRET dose response biochemical High Throughput Screening assay for agonists of the steroid receptor coactivator 1 (SRC-1) recruitment by the peroxisome proliferator-activated receptor gamma (PPAR gamma): non-selective agonists. [Related pubchem assays (depositor defined):AID1300, AID1808, AID504735, AID631]; assay type: protein assay
# [14] = NIH-3T3 fibroblast cytotoxicity, dose response, cytotoxicity control, cell-based, fluorescence, Alamar Blue, secondary assay (AID 2327); assay type: functional;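 also: NIH-3T3 mouse fibroblasts cultured with fluconazole at 8 µg/mL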
# [15] = biological target: Photoreceptor-specific nuclear receptor (Homo sapiens, UniProt Q9Y5X4); assay type: functional;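 also: potency for compounds that break the NR2E3 corepressor complex and count as activators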
# [16] = biological target: Peroxisome proliferator-activated receptor gamma/Nuclear receptor coactivator 2 (Homo sapiens, UniProt P37231); assay: TR-FRET dose response biochemical High Throughput Screening assay for agonists of the steroid receptor coactivator 2 (SRC-2) recruitment by the peroxisome proliferator-activated receptor gamma (PPAR gamma): non-selective agonists. [Related pubchem assays: 1297, 1032 ]; assay type: functional
# [17] = fluconazole-exposed Candida albicans growth modulators – fluorescence, retest, confirmation (AID 2467); assay type: functional, cell-based
# Cytochrome P450 2C19 = Cytochrome P450 2C19 (Homo sapiens, UniProt P33261); assay: Cytochrome panel assay with activity outcomes. Panel member name: p450-cyp2c19 Compounds with AC50 equal or less than 10 uM are considered active; assay type: functional; conditions: read-out: AC50
# [18] = biological target: Peroxisome proliferator-activated receptor gamma/Nuclear receptor corepressor 2 (Homo sapiens, UniProt P37231+Q9Y618); assay type: functional
# [19] = biological target: Peroxisome proliferator-activated receptor gamma/Nuclear receptor coactivator 3 (Homo sapiens, UniProt P37231); assay: TR-FRET dose response biochemical High Throughput Screening assay for agonists of the steroid receptor coactivator 3 (SRC-3) recruitment by the peroxisome proliferator-activated receptor gamma (PPAR gamma): non-selective agonists. [Related pubchem assays: 1301 (Confirmation screen.), 1048 (Primary screen.)]; assay type: functional
# [20] = biological target: ATP-dependent molecular chaperone HSP82 (Candida albicans (strain WO-1) (Yeast), UniProt C4YTQ8); assay: steroid-induced GRE reporter decrease in yeast – S. cerevisiae, luminescence, Hsp90 inhibitor project, dose response (AID 2400); assay type: functional, cell-based;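 also: beta-galactosidase luminescence from glucocorticoid response element reporter as proxy for Hsp90 function; inhibitor potency where signal loss means Hsp90 inhibition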
# [21] = biological target: Serine/threonine-protein phosphatase (Candida dubliniensis (strain CD36 / CBS 7987 / NCPF 3949 / NRRLY-17841) (Yeast), UniProt B9W6M3); assay: blockers of CaCl2-induced CDRE-lacZ signaling – S. cerevisiae, luminescence, secondary, dose response (AID 2388); assay type: functional, cell-based;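 also: yeast reporter cells carrying a calcineurin-responsive lacZ construct stimulated with calcium chloride; luminescent beta-galactosidase reporter signal in whole cells rather than isolated phosphatase activity; potency for inhibition where a drop in reporter signal means calcineurin blockade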
# fMet-Leu-Phe receptor = fMet-Leu-Phe receptor (Homo sapiens, UniProt P21462); assay: formyl peptide receptor binders – dose response (AID 519); assay type: functional
# Cytochrome P450 3A4 = Cytochrome P450 3A4 (Homo sapiens, UniProt P08684);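 also: CYP3A4 tested as one member of a cytochrome P450 panel screen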
# [22] = biological target: Beta-2 adrenergic receptor (Homo sapiens, UniProt P07550); assay: ADRB2 activation measured by internalization – cell-based, FAP fluorogen, flow cytometry, cherry pick 1, dose response (AID 588763); assay type: functional
# [23] = biological target: T3, Nuclear receptor subfamily 0 group B member 1 (Homo sapiens, UniProt P51843); assay: Luminescence-based cell-based high throughput dose response assay for inhibitors of the orphan nuclear receptor subfamily 0, group B, member 1 (DAX1; NR0B1). [Related pubchem assays (depositor defined):AID504766, AID504790]; assay type: functional
# T3 sequence (P51843 whole entry): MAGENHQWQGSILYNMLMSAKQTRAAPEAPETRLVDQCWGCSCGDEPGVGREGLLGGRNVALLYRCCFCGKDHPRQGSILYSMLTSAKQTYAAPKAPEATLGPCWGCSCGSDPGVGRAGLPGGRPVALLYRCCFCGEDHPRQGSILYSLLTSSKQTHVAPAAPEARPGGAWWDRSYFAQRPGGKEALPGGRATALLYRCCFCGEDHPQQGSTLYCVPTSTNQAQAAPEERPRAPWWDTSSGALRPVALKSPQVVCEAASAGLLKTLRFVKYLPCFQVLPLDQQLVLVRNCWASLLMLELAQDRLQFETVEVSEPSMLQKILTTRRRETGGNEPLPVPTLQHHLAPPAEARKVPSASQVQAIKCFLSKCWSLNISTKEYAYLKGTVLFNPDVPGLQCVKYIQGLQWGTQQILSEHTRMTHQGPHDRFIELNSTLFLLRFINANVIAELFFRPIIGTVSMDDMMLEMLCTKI
# HEK293 = assay: cells; assay type: functional, cell-based; conditions: Homo sapiens
# Caspase-6 = biological target: T4, Caspase-6 (Homo sapiens, UniProt P55212); assay: inhibition of CASP6 peptide cleavage – biochemical, VEID-R110 fluorescence, cherry-pick, dose response (AID 720632)
# T4 sequence (P55212 whole entry): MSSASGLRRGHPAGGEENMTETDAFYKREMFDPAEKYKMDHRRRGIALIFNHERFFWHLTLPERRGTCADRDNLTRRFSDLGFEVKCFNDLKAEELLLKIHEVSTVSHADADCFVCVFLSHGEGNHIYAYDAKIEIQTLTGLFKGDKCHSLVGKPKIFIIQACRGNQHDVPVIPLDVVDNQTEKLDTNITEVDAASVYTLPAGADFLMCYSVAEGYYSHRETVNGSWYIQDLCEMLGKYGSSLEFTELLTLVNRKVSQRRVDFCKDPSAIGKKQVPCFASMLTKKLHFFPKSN
# Caspase-7 = Caspase-7 (Homo sapiens, UniProt P55210); assay: caspase-7 enzyme inhibition, selectivity check – biochemical, DEVD-R110 fluorescence, cherry-pick, selectivity assay for caspase-6 inhibitor project, dose response (AID 743295); assay type: functional
# Keap1/Nrf2 = Keap1/Nrf2 (Homo sapiens, UniProt Q14145); assay: disruptors of Keap1 binding to Nrf2 peptide – biochemical, fluorescence polarization, cherry-picked samples, dose response (AID 588683)
# Keap1/Nrf2, sequence (Q16236 whole entry): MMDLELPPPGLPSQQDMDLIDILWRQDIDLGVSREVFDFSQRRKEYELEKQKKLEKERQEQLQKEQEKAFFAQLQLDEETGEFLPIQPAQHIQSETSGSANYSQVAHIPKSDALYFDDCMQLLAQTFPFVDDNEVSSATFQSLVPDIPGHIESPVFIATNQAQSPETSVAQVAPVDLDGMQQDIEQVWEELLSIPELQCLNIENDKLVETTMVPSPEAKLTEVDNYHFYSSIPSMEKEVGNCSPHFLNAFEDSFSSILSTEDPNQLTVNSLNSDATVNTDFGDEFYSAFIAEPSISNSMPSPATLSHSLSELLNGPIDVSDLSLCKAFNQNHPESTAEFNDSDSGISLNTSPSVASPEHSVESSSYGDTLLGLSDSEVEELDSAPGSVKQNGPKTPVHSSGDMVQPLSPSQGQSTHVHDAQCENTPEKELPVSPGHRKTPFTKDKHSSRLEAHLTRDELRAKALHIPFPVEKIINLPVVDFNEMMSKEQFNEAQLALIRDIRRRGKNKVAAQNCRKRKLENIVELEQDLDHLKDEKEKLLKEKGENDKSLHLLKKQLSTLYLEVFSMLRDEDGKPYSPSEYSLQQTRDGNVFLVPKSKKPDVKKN
# Keap1/Nrf2, sequence (Q14145 whole entry): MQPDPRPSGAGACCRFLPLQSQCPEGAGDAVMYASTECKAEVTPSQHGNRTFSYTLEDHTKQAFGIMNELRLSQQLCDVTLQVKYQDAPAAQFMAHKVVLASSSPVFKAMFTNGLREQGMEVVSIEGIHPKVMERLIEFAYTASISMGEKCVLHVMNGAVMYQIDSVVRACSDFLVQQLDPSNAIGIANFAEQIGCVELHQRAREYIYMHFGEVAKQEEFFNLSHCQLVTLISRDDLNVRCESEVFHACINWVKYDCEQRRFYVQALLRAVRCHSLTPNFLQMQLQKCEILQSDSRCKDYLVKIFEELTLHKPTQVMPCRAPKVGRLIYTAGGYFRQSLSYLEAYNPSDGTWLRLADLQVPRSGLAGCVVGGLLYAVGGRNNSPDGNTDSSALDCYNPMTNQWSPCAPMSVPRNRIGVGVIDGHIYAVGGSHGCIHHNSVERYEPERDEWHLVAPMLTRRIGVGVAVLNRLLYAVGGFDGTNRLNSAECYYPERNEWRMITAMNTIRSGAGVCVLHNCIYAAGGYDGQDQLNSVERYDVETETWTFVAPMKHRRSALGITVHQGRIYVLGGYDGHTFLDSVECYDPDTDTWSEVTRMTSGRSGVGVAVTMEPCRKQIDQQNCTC
# Serine/threonine-protein phosphatase, sequence (B9W6M3 whole entry): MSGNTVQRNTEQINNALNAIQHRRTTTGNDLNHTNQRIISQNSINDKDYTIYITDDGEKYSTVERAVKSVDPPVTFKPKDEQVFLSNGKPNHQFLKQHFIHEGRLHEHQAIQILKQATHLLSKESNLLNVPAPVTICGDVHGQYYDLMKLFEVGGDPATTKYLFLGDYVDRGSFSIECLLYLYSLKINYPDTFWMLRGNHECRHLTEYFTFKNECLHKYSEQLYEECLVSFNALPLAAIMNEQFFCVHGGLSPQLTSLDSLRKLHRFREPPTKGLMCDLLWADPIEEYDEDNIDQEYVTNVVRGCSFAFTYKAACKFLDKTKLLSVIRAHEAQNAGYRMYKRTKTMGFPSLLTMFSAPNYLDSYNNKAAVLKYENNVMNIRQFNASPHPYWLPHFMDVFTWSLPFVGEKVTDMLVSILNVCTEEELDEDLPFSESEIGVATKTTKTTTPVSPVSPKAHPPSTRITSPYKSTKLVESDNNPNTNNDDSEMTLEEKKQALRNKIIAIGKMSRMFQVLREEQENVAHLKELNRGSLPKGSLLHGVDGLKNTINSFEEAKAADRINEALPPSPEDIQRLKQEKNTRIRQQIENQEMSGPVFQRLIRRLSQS
# Dual specificity protein kinase CLK1, sequence (P49759 whole entry): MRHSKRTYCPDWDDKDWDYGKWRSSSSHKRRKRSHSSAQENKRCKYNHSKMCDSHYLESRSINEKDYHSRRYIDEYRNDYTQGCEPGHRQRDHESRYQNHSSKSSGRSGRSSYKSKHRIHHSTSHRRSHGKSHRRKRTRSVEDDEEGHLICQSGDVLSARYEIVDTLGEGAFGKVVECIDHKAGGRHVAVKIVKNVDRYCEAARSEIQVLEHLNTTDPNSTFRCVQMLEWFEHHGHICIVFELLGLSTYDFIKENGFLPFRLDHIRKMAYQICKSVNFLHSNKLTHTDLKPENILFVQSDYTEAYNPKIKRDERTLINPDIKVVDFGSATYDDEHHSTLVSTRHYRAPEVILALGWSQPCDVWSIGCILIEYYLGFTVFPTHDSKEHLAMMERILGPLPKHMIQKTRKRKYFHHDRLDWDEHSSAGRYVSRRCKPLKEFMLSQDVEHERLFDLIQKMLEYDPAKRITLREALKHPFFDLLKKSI
# ATP-dependent molecular chaperone HSP82, sequence (C4YTQ8 whole entry): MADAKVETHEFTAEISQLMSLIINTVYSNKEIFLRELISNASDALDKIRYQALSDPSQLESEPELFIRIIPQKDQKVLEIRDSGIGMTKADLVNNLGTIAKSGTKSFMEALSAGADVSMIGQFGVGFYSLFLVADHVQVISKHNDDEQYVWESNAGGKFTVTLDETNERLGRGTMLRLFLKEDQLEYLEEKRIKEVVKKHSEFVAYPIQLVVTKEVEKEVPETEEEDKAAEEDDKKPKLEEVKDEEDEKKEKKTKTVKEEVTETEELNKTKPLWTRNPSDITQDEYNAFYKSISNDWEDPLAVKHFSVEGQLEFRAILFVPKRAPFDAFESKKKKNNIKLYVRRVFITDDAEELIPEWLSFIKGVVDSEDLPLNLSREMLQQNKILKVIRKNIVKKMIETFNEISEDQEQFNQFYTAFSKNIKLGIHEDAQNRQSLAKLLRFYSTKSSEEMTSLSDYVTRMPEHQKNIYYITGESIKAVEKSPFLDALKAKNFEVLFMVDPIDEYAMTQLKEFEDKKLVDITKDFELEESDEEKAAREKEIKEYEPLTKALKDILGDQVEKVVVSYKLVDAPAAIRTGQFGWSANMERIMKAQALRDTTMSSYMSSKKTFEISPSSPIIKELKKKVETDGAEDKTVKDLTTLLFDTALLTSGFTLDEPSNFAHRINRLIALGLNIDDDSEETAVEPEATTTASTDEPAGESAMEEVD
# Cytochrome P450 3A4, sequence (P08684 whole entry): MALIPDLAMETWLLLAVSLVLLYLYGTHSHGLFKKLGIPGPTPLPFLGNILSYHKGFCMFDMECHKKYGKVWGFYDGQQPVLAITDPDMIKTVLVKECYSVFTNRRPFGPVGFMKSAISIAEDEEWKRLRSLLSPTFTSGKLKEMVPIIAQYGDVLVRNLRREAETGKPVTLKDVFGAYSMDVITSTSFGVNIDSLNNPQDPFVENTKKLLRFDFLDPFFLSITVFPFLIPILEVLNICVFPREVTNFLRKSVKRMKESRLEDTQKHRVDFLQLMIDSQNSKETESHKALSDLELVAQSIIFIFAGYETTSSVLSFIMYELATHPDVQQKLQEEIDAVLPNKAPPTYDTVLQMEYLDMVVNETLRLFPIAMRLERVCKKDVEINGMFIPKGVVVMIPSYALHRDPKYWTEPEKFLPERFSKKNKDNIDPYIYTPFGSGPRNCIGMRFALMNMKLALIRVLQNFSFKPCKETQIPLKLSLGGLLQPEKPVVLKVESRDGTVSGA
# Cytochrome P450 2C19, sequence (P33261 whole entry): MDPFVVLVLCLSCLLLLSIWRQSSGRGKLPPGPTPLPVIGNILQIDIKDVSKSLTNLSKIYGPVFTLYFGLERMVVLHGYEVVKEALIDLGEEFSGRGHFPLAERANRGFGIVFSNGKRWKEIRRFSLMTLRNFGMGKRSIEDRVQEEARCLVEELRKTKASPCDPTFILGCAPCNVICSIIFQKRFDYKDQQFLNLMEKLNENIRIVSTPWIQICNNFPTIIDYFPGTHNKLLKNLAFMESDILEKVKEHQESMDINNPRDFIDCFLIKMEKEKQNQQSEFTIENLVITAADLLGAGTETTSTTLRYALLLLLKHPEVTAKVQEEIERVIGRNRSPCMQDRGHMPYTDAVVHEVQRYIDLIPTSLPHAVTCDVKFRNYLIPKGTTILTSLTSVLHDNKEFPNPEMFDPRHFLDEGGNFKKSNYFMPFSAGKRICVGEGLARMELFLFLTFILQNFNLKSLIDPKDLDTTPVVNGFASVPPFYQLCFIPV
# fMet-Leu-Phe receptor, sequence (P21462 whole entry): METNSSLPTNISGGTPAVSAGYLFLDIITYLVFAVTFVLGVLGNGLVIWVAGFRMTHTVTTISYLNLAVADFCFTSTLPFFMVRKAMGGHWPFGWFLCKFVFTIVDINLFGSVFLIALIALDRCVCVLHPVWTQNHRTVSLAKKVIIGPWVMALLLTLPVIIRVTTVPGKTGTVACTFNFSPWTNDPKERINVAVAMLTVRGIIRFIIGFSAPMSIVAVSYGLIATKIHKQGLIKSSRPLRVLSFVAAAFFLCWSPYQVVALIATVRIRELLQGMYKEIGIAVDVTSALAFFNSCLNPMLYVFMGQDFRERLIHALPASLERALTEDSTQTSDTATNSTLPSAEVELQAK
# Beta-2 adrenergic receptor, sequence (P07550 whole entry): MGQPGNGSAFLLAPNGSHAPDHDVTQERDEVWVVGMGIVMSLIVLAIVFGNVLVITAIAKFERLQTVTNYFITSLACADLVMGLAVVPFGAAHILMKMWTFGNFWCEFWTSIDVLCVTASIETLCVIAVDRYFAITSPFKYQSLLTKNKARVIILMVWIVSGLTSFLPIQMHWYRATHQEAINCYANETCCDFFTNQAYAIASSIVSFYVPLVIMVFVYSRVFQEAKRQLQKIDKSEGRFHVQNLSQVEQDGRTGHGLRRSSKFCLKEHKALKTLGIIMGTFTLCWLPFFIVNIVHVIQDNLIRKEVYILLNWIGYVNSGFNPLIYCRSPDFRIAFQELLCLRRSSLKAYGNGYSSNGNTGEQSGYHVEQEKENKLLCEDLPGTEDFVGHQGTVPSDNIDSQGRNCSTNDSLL
structure (smiles),measurement,setting,value
Brc1ccc(CNc2nccc(-c3ccc4c(c3)OCO4)n2)cc1Br,AC50,[1],0.0049 µM (active)
CN1CCN2c3ccccc3Cc3ccccc3C2C1 (stereo not drawn) [MIANSERIN HYDROCHLORIDE],AC50,[2],35.5 µM (inconclusive)
same,CC50,[3],> 40 µM (active)
c1ccc(Cc2cc(-c3ccccc3)on2)cc1,AC50,HeLa,253 µM (active)
C=CC(=O)OCCOCCOCCOCCOC(=O)C=C,EC50,[4],> 91.2 µM (inactive)
same,EC50,[5],> 91.2 µM (inactive)
same,AC50,[6],25 µM (active)
same,AC50,[7],92 µM (active)
same,AC50,[8],19.2 µM (active)
C[C@@H](CN1CCC(n2c(=O)[nH]c3ccc(F)cc32)CC1)NC(=O)c1ccc(Cl)cc1,IC50,Phospholipase D1,0.004 µM (active)
same,IC50,Phospholipase D2,0.434 µM (active)
O=C(c1ccc(Cl)cn1)N1CCN(c2ccnc3cc(Cl)ccc23)CC1,AC50,Candida albicans [9],0.316 µM (active)
same,AC50,Candida albicans [10],2.47 µM (active)
same,AC50,Candida albicans [11],< 0.195 µM (active)
same,AC50,Candida albicans [12],3.17 µM (active)
COc1cccc(C2C(C(=O)c3cc4ccccc4o3)=C(O)C(=O)N2c2cc(C)on2)c1OC (stereo not drawn),EC50,[13],35.9 µM (inactive)
same,EC50,[14],> 150 µM (inactive)
same,IC50,[15],> 39.8 µM (not active)
same,EC50,[16],9.84 µM (active)
same,EC50,[17],0.61 µM (active)
same,AC50,Cytochrome P450 2C19,15.8 µM (inconclusive)
same,IC50,[18],4.97 µM (active)
same,EC50,[19],> 79.4 µM (not active)
same,EC50,[20],17.2 µM (active)
same,EC50,[21],> 180 µM (inactive)
same,Ki,fMet-Leu-Phe receptor,> 66.7 µM (inactive)
same,AC50,Cytochrome P450 3A4,28.2 µM (inconclusive)
O=C(Cn1nc(-c2ccccc2)ccc1=O)Nc1ccc(NC(=O)c2ccccn2)cc1,EC50,[22],0.00816 µM (active)
Cc1ccccc1NC(=O)Nc1nc2ccc(S(C)(=O)=O)cc2s1,IC50,[23],> 67.5 µM (inactive)
same,IC50,HEK293,> 67.5 µM (inactive)
Cc1oc2c(cc(NS(=O)(=O)c3ccc(C(C)C)cc3)c3ccccc32)c1C(=O)O,AC50,Caspase-6,4 µM (active)
same,AC50,Caspase-7,> 70 µM (inactive)
same,AC50,Keap1/Nrf2,21.7 µM (active)
